Test results reported in PubChem BioAssay AID2060498 (Molecular Pharmacology Branch, DTP, NCI, 2025).

Tested on: 171881-019-R-J1-PDC tumor spheroids, viability
Assay: Anticancer human tumor 171881-019-R-J1-PDC patient-derived invasive breast carcinoma cell line growth inhibition [GQUAD]
Settings: spheroids with HUVEC and MSC; for IC50: curve of first compound; for viability, T/C: stronger effect = lower value
In short: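 Tumor cells were grown as complex spheroids with HUVEC endothelial cells and mesenchymal stem cells as stroma. G-quadruplex stabilizers were combined with targeted agents over half-log dilutions from near the clinical Cmax, or from 10 microM.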
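Note: spheroids exposed to compounds for 7 days.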
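Throughout, for viability, T/C: 100% = DMSO vehicle control viability.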

C=CCn1c(=O)c2cnc(Nc3ccc(N4CCN(C)CC4)cc3)nc2n1-c1cccc(C(C)(C)O)n1 + Cc1cnc(CNC(=O)c2c(=O)c3ccc(N4CCCN(C)CC4)nc3n3c2sc2ccccc23)cn1
IC50 (second compound 0.0316 µM): 652 nM
IC50 (second compound 0.1 µM): 541 nM
IC50 (second compound 0.316 µM): 428 nM
IC50 (second compound 1 µM): 496 nM
IC50 (second compound 3.16 µM): 566 nM
IC50 (second compound 10 µM): 358 nM
viability, T/C (second compound 0.0316 µM, first compound 0.0316 µM): 106%
viability, T/C (second compound 0.0316 µM, first compound 0.1 µM): 84.2%
viability, T/C (second compound 0.0316 µM, first compound 0.316 µM): 74.9%
viability, T/C (second compound 0.0316 µM, first compound 1 µM): 36.3%
viability, T/C (second compound 0.0316 µM, first compound 3.16 µM): 19.9%
viability, T/C (second compound 0.0316 µM, first compound 10 µM): 23.3%
viability, T/C (second compound 0.1 µM, first compound 0.0316 µM): 72.9%
viability, T/C (second compound 0.1 µM, first compound 0.1 µM): 76%
viability, T/C (second compound 0.1 µM, first compound 0.316 µM): 60.6%
viability, T/C (second compound 0.1 µM, first compound 1 µM): 37.3%
viability, T/C (second compound 0.1 µM, first compound 3.16 µM): 22.6%
viability, T/C (second compound 0.1 µM, first compound 10 µM): 22.2%
viability, T/C (second compound 0.316 µM, first compound 0.0316 µM): 72.1%
viability, T/C (second compound 0.316 µM, first compound 0.1 µM): 68.6%
viability, T/C (second compound 0.316 µM, first compound 0.316 µM): 55.7%
viability, T/C (second compound 0.316 µM, first compound 1 µM): 34.3%
viability, T/C (second compound 0.316 µM, first compound 3.16 µM): 26.1%
viability, T/C (second compound 0.316 µM, first compound 10 µM): 24.8%
viability, T/C (second compound 1 µM, first compound 0.0316 µM): 66.5%
viability, T/C (second compound 1 µM, first compound 0.1 µM): 60.4%
viability, T/C (second compound 1 µM, first compound 0.316 µM): 56.6%
viability, T/C (second compound 1 µM, first compound 1 µM): 41.3%
viability, T/C (second compound 1 µM, first compound 3.16 µM): 31.1%
viability, T/C (second compound 1 µM, first compound 10 µM): 28.1%
viability, T/C (second compound 3.16 µM, first compound 0.0316 µM): 66.1%
viability, T/C (second compound 3.16 µM, first compound 0.1 µM): 58%
viability, T/C (second compound 3.16 µM, first compound 0.316 µM): 58.5%
viability, T/C (second compound 3.16 µM, first compound 1 µM): 42.3%
viability, T/C (second compound 3.16 µM, first compound 3.16 µM): 36.6%
viability, T/C (second compound 3.16 µM, first compound 10 µM): 35.3%
viability, T/C (second compound 10 µM, first compound 0.0316 µM): 57.4%
viability, T/C (second compound 10 µM, first compound 0.1 µM): 54.6%
viability, T/C (second compound 10 µM, first compound 0.316 µM): 50.2%
viability, T/C (second compound 10 µM, first compound 1 µM): 48.7%
viability, T/C (second compound 10 µM, first compound 3.16 µM): 36.4%
viability, T/C (second compound 10 µM, first compound 10 µM): 36%
